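Tested at 5 concentrations; 48 h exposure; 96-well plates; endpoints linearly interpolated, else capped at highest concentration. At the TGI there is no net growth.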
Assays:
Test in all cases: growth of human tumour cells (NCI), 48 h
[1] = tested on: 786-0 renal
[2] = tested on: A549 NSCLC
[3] = tested on: ACHN renal
[4] = tested on: BT-549 breast
[5] = tested on: CCRF-CEM leukemia
[6] = tested on: COLO 205 colon
[7] = tested on: DU-145 prostate
[8] = tested on: EKVX NSCLC
[9] = tested on: HCC-2998 colon
[10] = tested on: HCT-116 colon
[11] = tested on: HCT-15 colon
[12] = tested on: HL-60(TB) leukemia
[13] = tested on: HOP-62 NSCLC
[14] = tested on: HOP-92 NSCLC
[15] = tested on: HS 578T breast
[16] = tested on: HT29 colon
[17] = tested on: IGROV1 ovarian
[18] = tested on: K-562 leukemia
[19] = tested on: KM12 colon
[20] = tested on: LOX IMVI melanoma
[21] = tested on: M14 melanoma
[22] = tested on: MALME-3M melanoma
[23] = tested on: MCF7 breast
[24] = tested on: MDA-MB-231 breast
[25] = tested on: MDA-MB-435
[26] = tested on: MDA-N
[27] = tested on: MOLT-4 leukemia
[28] = tested on: NCI-H226 lung
[29] = tested on: NCI-H23 lung
[30] = tested on: NCI-H460 lung
[31] = tested on: NCI-H522 lung
[32] = tested on: NCI/ADR-RES ovarian
[33] = tested on: OVCAR-3 ovarian
[34] = tested on: OVCAR-4 ovarian
[35] = tested on: OVCAR-5 ovarian
[36] = tested on: OVCAR-8 ovarian
[37] = tested on: PC-3 prostate
[38] = tested on: RPMI-8226 leukemia
[39] = tested on: RXF 393 renal
[40] = tested on: SF-268 CNS
[41] = tested on: SF-295 CNS
[42] = tested on: SF-539 CNS
[43] = tested on: SK-MEL-2 melanoma
[44] = tested on: SK-MEL-28 melanoma
[45] = tested on: SK-MEL-5 melanoma
[46] = tested on: SK-OV-3 ovarian
[47] = tested on: SN12C renal
[48] = tested on: SNB-19 CNS
[49] = tested on: SNB-75 CNS
[50] = tested on: SR leukemia
[51] = tested on: SW-620 colon
[52] = tested on: T-47D breast
[53] = tested on: TK-10 renal
[54] = tested on: U251 CNS
[55] = tested on: UACC-257 melanoma
[56] = tested on: UACC-62 melanoma
[57] = tested on: UO-31 renal

O=C(O)CN(CCNC(=O)OCC1c2ccccc2-c2ccccc21)CCNC(=O)OCC1c2ccccc2-c2ccccc21
TGI [1]: 36 µM
TGI [2]: 49.1 µM
TGI [3]: 35.1 µM
TGI [4]: 67.4 µM
TGI [5]: 63 µM
TGI [6]: 40.7 µM
TGI [7]: 35.8 µM
TGI [8]: 52.5 µM
TGI [9]: 51.3 µM
TGI [10]: 31.9 µM
TGI [11]: 70.3 µM
TGI [12]: 50.1 µM
TGI [13]: 44.7 µM
TGI [14]: 42.7 µM
TGI [15]: > 100 µM
TGI [16]: 32.9 µM
TGI [17]: 45.7 µM
TGI [18]: 39.9 µM
TGI [19]: 34.7 µM
TGI [20]: 32.4 µM
TGI [21]: 73.4 µM
TGI [22]: 38.9 µM
TGI [23]: 40.2 µM
TGI [24]: 31.9 µM
TGI [25]: 34.4 µM
TGI [26]: 36.7 µM
TGI [27]: 49.3 µM
TGI [28]: 81.2 µM
TGI [29]: 49.6 µM
TGI [30]: 41.2 µM
TGI [31]: 32.3 µM
TGI [32]: > 100 µM
TGI [33]: 35.6 µM
TGI [34]: 64.4 µM
TGI [35]: 96.3 µM
TGI [36]: 37.2 µM
TGI [37]: 49 µM
TGI [38]: 76.1 µM
TGI [39]: 67.7 µM
TGI [40]: 39.8 µM
TGI [41]: 54.7 µM
TGI [42]: 46.7 µM
TGI [43]: 46.6 µM
TGI [44]: 42.1 µM
TGI [45]: 36.8 µM
TGI [46]: 70.6 µM
TGI [47]: 80.1 µM
TGI [48]: 73.4 µM
TGI [49]: 67.5 µM
TGI [50]: 50.2 µM
TGI [51]: 42.3 µM
TGI [52]: 49.9 µM
TGI [53]: 50.6 µM
TGI [54]: 38.4 µM
TGI [55]: 68.8 µM
TGI [56]: 47.5 µM
TGI [57]: 37.5 µM

From PubChem BioAssay (NCI)
